Measurements from patent US20150218212A1, “FLUORINATED EPOXYKETONE-BASED TETRAPEPTIDE COMPOUNDS AND USES THEREOF AS PROTEASOME INHIBITORS” (FLUORINOV PHARMA INC., priority 2012, published 2015).

Assays:
Assay type in all cases: cell-based, human
A549/ATCC = test: NCI screening panel, A549/ATCC (Non-Small Cell Lung Cancer)
Method: (§1) Representative compounds of Formula I were screened using the National Cancer Institute (NCI) screening panel, which consists of a panel of human tumor cell lines, representing leukemia, melanoma, and cancers of the lung, colon, ovary, breast, prostate and renal system.
(§2) After 24 h, two plates of each cell line are fixed in situ with TCA, to represent a measurement of the cell population for each cell line at the time of drug addition (Tz). Experimental drugs are solubilised in dimethyl sulfoxide at 400-fold the desired final maximum test concentration and stored frozen prior to use. At the time of drug addition, an aliquot of frozen concentrate is thawed and diluted to twice the desired final maximum test concentration with complete medium containing 50 μg/mL gentamicin. Additional four, 10-fold or ½ log serial dilutions are made to provide a total of five drug concentrations plus control. Aliquots of 100 μl of these different drug dilutions are added to the appropriate microtiter wells already containing 100 μl of medium, resulting in the required final drug concentrations.
(§3) Following drug addition, the plates are incubated for an additional 48 h at 37° C., 5% CO2, 95% air, and 100% relative humidity. For adherent cells, the assay is terminated by the addition of cold TCA (trichloroacetic acid). Cells are fixed in situ by the gentle addition of 50 μl of cold 50% (w/v) TCA (final concentration, 10% TCA) and incubated for 60 minutes at 4° C. The supernatant is discarded, and the plates are washed five times with tap water and air dried. Sulforhodamine B (SRB) solution (100 μl) at 0.4% (w/v) in 1% acetic acid is added to each well, and plates are incubated for 10 minutes at room temperature. After staining, unbound dye is removed by washing five times with 1% acetic acid and the plates are air dried. Bound stain is subsequently solubilised with 10 mM trizma base, and the absorbance is read on an automated plate reader at a wavelength of 515 nm. For suspension cells, the methodology is the same except that the assay is terminated by fixing settled cells at the bottom of the wells by gently adding 50 μl of 80% TCA (final concentration, 16% TCA). Using the seven absorbance measurements [time zero, (Tz), control growth, (C), and test growth in the presence of drug at the five concentration levels (Ti)], the percentage growth is calculated at each of the drug concentrations levels. Percentage growth inhibition is calculated as: [(Ti−Tz)/(C−Tz)]×100 for concentrations for which Ti>/=Tz and [(Ti−Tz)/Tz]×100 for concentrations for which Ti<Tz.
(§4) Three dose response parameters are calculated for each experimental agent. Growth inhibition of 50% (GI50) is calculated from [(Ti−Tz)/(C−Tz)]×100=50, which is the drug concentration resulting in a 50% reduction in the net protein increase (as measured by SRB staining) in control cells during the drug incubation. The drug concentration resulting in total growth inhibition (TGI) is calculated from Ti=Tz. The LC50 (concentration of drug resulting in a 50% reduction in the measured protein at the end of the drug treatment as compared to that at the beginning) indicating a net loss of cells following treatment is calculated from [(Ti−Tz)/Tz]×100=−50. Values are calculated for each of these three parameters if the level of activity is reached. However, if the effect is not reached or is exceeded, the value for that parameter is expressed as greater or less than the maximum or minimum concentration tested.

786-0 = test: NCI screening panel, 786-0 (Renal Cancer)
Method: as §1, §2, §3, §4

ACHN = test: NCI screening panel, ACHN (Renal Cancer)
Method: as §1, §2, §3, §4

| Compound | Log10GI50 (A549/ATCC) | Log10LC50 (A549/ATCC) | Log10TGI50 (A549/ATCC) | Log10GI50 (786-0) | Log10LC50 (786-0) | Log10TGI50 (786-0) | Log10GI50 (ACHN) | Log10LC50 (ACHN) | Log10TGI50 (ACHN) |
| --- | --- | --- | --- | --- | --- | --- | --- | --- | --- |
| CC(C)C[C@H](NC(=O)[C@H](COC(F)F)NC(=O)CN1CCOCC1)C(=O)N[C@@H](COC(F)F)C(=O)N[C@@H](CC(C)C)C(=O)[C@@]1(C)CO1 [Example 1, (2S)—N-[(1S)-1-(difluoromethoxymethyl)-2-[[(1S)-3-methyl-1-[(2R)-2-methyloxirane-2-carbonyl]butyl]amino]-2-oxo-ethyl]-2-[[(2S)-3-(difluoromethoxy)-2-[(2-morpholinoacetyl)amino]propanoyl]amino]-4-methyl-pentanamide] | −7.46 | >−4.00 | −5.49 | −6.60 | −5.05 | −5.84 | −6.34 | >−4.00 | >−4.00 |
| CC(C)C[C@H](NC(=O)[C@H](COC(F)F)NC(=O)CN1CCOCC1)C(=O)N[C@@H](Cc1ccccc1)C(=O)N[C@@H](CC(C)C)C(=O)[C@@]1(C)CO1 [Example 2, (2S)-N-[(1S)-1-benzyl-2-[[(1S)-3-methyl-1-[(2R)-2-methyloxirane-2-carbonyl]butyl]-amino]-2-oxo-ethyl]-2-[[(2S)-3-(difluoromethoxy)-2-[(2-morpholinoacetyl)amino]propanoyl]amino]-4-methyl-pentanamide] | −7.52 | >−4.00 | −5.93 | −7.09 | >−4.00 | −6.01 | −6.71 | >−4.00 | >−4.00 |
| CC(C)C[C@H](NC(=O)[C@H](COC(F)F)NC(=O)CN1CCOCC1)C(=O)N[C@@H](Cc1ccccc1)C(=O)N[C@@H](Cc1ccccc1)C(=O)[C@@]1(C)CO1 [Example 3, (2S)-N-[(1S)-1-benzyl-2-[[(1S)-1-benzyl-2-[(2R)-2-methyloxiran-2-yl]-2-oxo-ethyl]amino]-2-oxo-ethyl]-2-[[(2S)-3-(difluoromethoxy)-2-[(2-morpholinoacetyl)-amino]propanoyl]amino]-4-methyl-pentan-amide] | −7.65 | >−4.00 | >−4.00 | −7.22 | −4.14 | −5.77 | −7.13 | >−4.00 | >−4.00 |
| CC(C)C[C@H](NC(=O)[C@H](COC(F)F)NC(=O)CN1CCOCC1)C(=O)N[C@@H](COC(F)F)C(=O)N[C@@H](Cc1ccccc1)C(=O)[C@@]1(C)CO1 [Example 4, (2S)-N-[(1S)-2-[[(1S)-1-benzyl-2-[(2R)-2-methyloxiran-2-yl]-2-oxo-ethyl]amino]-1-(difluoromethoxymethyl)-2-oxo-ethyl]-2-[[(2S)-3-(difluoromethoxy)-2-[(2-mor-pholinoacetyl)amino]propanoyl]amino]-4 methyl-pentanamide] | −7.38 | >−4.00 | −4.55 | −6.44 | −4.27 | −5.58 | −6.32 | >−4.00 | >−4.00 |
| CC(C)C[C@H](NC(=O)[C@H](COC(F)F)NC(=O)[C@H](COC(F)F)NC(=O)[C@H](CCc1ccccc1)NC(=O)CN1CCOCC1)C(=O)[C@@]1(C)CO1 [Example 7, (2S)-N-[(1S)-1-(difluoromethoxymethyl)-2-[[(1S)-1-(difluoromethoxymethyl)-2-[[(1S)-3-methyl-1-[(2R)-2-methyloxirane-2-carbo-nyl]butyl]amino]-2-oxo-ethyl]amino]-2-oxo-ethyl]-2-[(2-morpholinoacetyl)amino]-4-phenyl-butanamide] | −7.43 | >−4.00 | >−4.00 | −6.45 | >−4.00 | −5.33 | −6.31 | >−4.00 | >−4.00 |
| CC(C)C[C@H](NC(=O)[C@H](Cc1ccccc1)NC(=O)[C@H](COC(F)F)NC(=O)[C@H](COC(F)F)NC(=O)CN1CCOCC1)C(=O)[C@@]1(C)CO1 [Example 11, (2S)-2-[[(2S)-3-(difluoromethoxy)-2-[[(2S)-3-(difluoromethoxy)-2-[(2-morpholinoacetyl)-amino]propanoyl]amino]propanoyl]amino]-N-[(1S)-3-methyl-1-[(2R)-2-methyloxirane-2-carbonyl]butyl]-3-phenyl-propanamide] | −7.40 |  | >−4.00 | −6.66 | >−4.00 | −5.63 | −6.40 | >−4.00 | >−4.00 |
| CC(C)C[C@H](NC(=O)[C@H](COC(F)F)NC(=O)[C@H](COC(F)F)NC(=O)[C@H](COC(F)F)NC(=O)CN1CCOCC1)C(=O)[C@@]1(C)CO1 [Example 17, (2S)-3-(difluoromethoxy)-N-[(1S)-1-(difluoromethoxymethyl)-2-[[(1S)-1-(difluoro-methoxymethyl)-2-[[(1S)-3-methyl-1-[(2R)-2-methyloxirane-2-carbonyl]butyl]amino]-2-oxo-ethyl]amino]-2-oxo-ethyl]-2-[(2-mor-pholinoacetyl)amino]-propanamide] | −6.99 | >−4.00 | −5.06 | −5.99 | >−4.00 | −4.92 | −5.55 | >−4.00 | >−4.00 |
